Source: patent publication US7678918B2, “Intermediates for imidazonaphthyridines” (3M Innovative Properties Company, priority 1997, dated 2010)

Legend:
IFN = experiment: Cytokine Induction in Human Cells: interferon (IFN) secreted by PBMCs, A549/encephalomyocarditis bioassay; format: cell-based; conditions: 18 to 24 hours; also: call rule not given here
Method in brief: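 Human PBMCs from healthy donors at 1.5-2×10^6 cells/mL in RPMI with 10% FBS, exposed to compounds (typically 0.1 to 100 μM, ≤1% DMSO) for 18 to 24 h at 37° C. Secreted IFN measured by A549/encephalomyocarditis virus cytopathic-effect bioassay, in alpha reference units/mL against NIH human leukocyte IFN standard.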

TNF = experiment: Cytokine Induction in Human Cells: tumor necrosis factor (TNF) secreted by PBMCs, ELISA; format: cell-based; conditions: 18 to 24 hours; also: call rule not given here
Method in brief: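 Human donor PBMCs at 1.5-2×10^6 cells/mL in RPMI with 10% FBS were exposed to compound, generally at 0.1 to 100 μM (≤1% DMSO final), for 18 to 24 h at 37 °C. Secreted TNF in supernatant was measured by ELISA and reported as pg/mL.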

melting point [°C] | SMILES | IFN induction (IFN; Dose Concentration 0.1 μM) | IFN induction (IFN; Dose Concentration 1.0 μM) | IFN induction (IFN; Dose Concentration 10.0 μM) | IFN induction (IFN; Dose Concentration 100.0 μM) | TNF induction (TNF; Dose Concentration 0.1 μM) | TNF induction (TNF; Dose Concentration 1.0 μM) | TNF induction (TNF; Dose Concentration 10.0 μM) | TNF induction (TNF; Dose Concentration 100.0 μM)
137 to 138 | CC(C)(C)OC(=O)NCCCCNc1c([N+](=O)[O-])cnc2cccnc12 [Example 41, 1,1-Dimethylethyl N-{4-[(3-Nitro[1,5]naphthyridin-4-yl)amino]butyl}carbamate] |  |  |  |  |  |  |  | 
96 to 98 | CCCCc1nc2cnc3cccnc3c2n1CCCCNC(=O)OC(C)(C)C [Example 43, 1,1-Dimethylethyl N-[4-(2-Butyl-1H-imidazo[4,5-c][1,5]naphthyridin-1-yl)butyl]carbamate] |  |  |  |  |  |  |  | 
148.5 to 149.5 | CCCCc1nc2c(N)nc3cccnc3c2n1CCCCNC(=O)OC(C)(C)C [Example 45, 1,1-Dimethylethyl N-[4-(4-Amino-2-butyl-1H-imidazo[4,5-c][1,5]naphthyridin-1-yl)butyl]carbamate] | + | + | + | − | − | + | + | −
212 to 213 | CCCCc1nc2c(N)nc3cccnc3c2n1CCCCN [Example 46, 4-(4-Amino-2-butyl-1H-imidazo[4,5-c][1,5]naphthyridin-1-yl)butaneamine] | + | + | + |  | + | + | + | +
184.5 to 186 | CC(C)(O)CNc1c([N+](=O)[O-])cnc2cccnc12 [Example 59, 1,1-Dimethyl-2-[(3-nitro[1,5]naphthyridin-4-yl)amino]ethanol] |  |  |  |  |  |  |  | 
177 to 179 | CCCCc1nc2c(N)nc3cccnc3c2n1CC(C)(C)O [Example 62, 1,1-Dimethyl-2-(4-amino-2-butyl[1,5]napthyridin-1-yl)ethanol] | + | + | + | + | + | + | + | +
211 to 213 | CC(C)(O)Cn1c(Cc2ccccc2)nc2c(N)nc3cccnc3c21 [Example 65, 1,1-Dimethyl-2-(4-amino-2-phenylmethyl[1,5]napthyridin-1-yl)ethanol] | + | + | + | + | − | + | + | +
127 to 129 | O=[N+]([O-])c1cnc2cccnc2c1NCc1ccccc1 [Example 66, N-Phenylmethyl-3-nitro[1,5]naphthyridin-4-amine] |  |  |  |  |  |  |  | 
118 to 119 | CCOCc1nc2cnc3cccnc3c2n1Cc1ccccc1 [Example 68, 2-Ethoxymethyl-1-phenylmethyl-1H-imidazo[4,5-c][1,5]naphthyridine] |  |  |  |  |  |  |  | 
173 to 174 | CCOCc1nc2c(N)nc3cccnc3c2n1Cc1ccccc1 [Example 70, 2-Ethoxymethyl-1-phenylmethyl-1H-imidazo[4,5-c][1,5]naphthyridin-4-amine] | + | + | + | − | − | + | + | −
62.5 to 63.5 | CC(C)OCCCNc1c([N+](=O)[O-])cnc2cccnc12 [Example 71, N^4-(3-Isopropoxypropyl)-3-nitro[1,5]naphthyridin-4-amine] |  |  |  |  |  |  |  | 
174 to 175 | CCCCc1nc2c(N)nc3cccnc3c2n1CCCOC(C)C [Example 75, 2-Butyl-1-(3-isopropoxypropyl)-1H-imidazo[4,5-c][1,5]naphthyridine-4-amine] | − | + | + | + | − | − | + | −
107 to 108 | O=[N+]([O-])c1cnc2cccnc2c1NCCOc1ccccc1 [Example 81, N^4-(2-Phenoxyethyl)-3-nitro[1,5]naphthyridin-4-amine] |  |  |  |  |  |  |  | 
150 to 150.5 | CCCCc1nc2cnc3cccnc3c2n1CCOc1ccccc1 [Example 83, 2-(2-Butyl-1H-imidazo[4,5-c][1,5]naphthyridin-1-yl)ethyl Phenyl Ether] |  |  |  |  |  |  |  | 
159 to 159.2 | CCCCc1nc2c(N)nc3cccnc3c2n1CCOc1ccccc1 [Example 85, 2-Butyl-1-(2-phenoxyethyl)-1H-imidazo[4,5-c][1,5]naphthyridin-4-amine] | + | + | + | − | − | + | + | −
149 to 151 | CC(C)(C)OC(=O)NCCNc1c([N+](=O)[O-])cnc2cccnc12 [Example 86, 1,1-Dimethylethyl N-{2-[(3-Nitro[1,5]naphthyridin-4-yl)amino]ethyl}carbamate] |  |  |  |  |  |  |  | 
118 to 120 | CCCCc1nc2c(N)nc3cccnc3c2n1CCNC(=O)OC(C)(C)C [Example 90, 1,1-Dimethylethyl N-[2-(4-Amino-2-butyl-1H-imidazo[4,5-c][1,5]naphthyridin-1-yl)ethyl]carbamate] | ± | + | + | + | − | − | + | +
175 to 176 | CCCCc1nc2c(N)nc3cccnc3c2n1CCN [Example 91, 2-(4-Amino-2-butyl-1H-imidazo[4,5-c][1,5]naphthyridin-1-yl)ethaneamine] | + | + | + | + | + | + | + | +
228 to 230 | CCCCc1nc2c(N)nc3cccnc3c2n1CCNC(C)=O [Example 92, N^1-[2-(4-Amino-2-butyl-1H-imidazo[4,5-c][1,5]naphthyridin-1-yl)ethyl]acetamide] | ± | + | + | + | − | + | + | +
198 to 200 | C/C=C/C(=O)NCCn1c(CCCC)nc2c(N)nc3cccnc3c21 [Example 93, N^1-[2-(4-Amino-2-butyl-1H-imidazo[4,5-c][1,5]naphthyridin-1-yl)ethyl]-(E)-2-butenamide] | − | + | + | + | − | + | + | +
188 to 190 | CCCCc1nc2c(N)nc3cccnc3c2n1CCNC(=O)C1CCCCC1 [Example 94, N^1-[2-(4-Amino-2-butyl-1H-imidazo[4,5-c][1,5]naphthyridin-1-yl)ethyl]-1-cyclohexanecarboxamide] | − | + | + | + | − | + | + | +
248 to 250 | CCCCc1nc2c(N)nc3cccnc3c2n1CCNC(=O)c1cc(C(C)(C)C)c(O)c(C(C)(C)C)c1 [Example 95, N^1-[2-(4-amino-2-butyl-1H-imidazo[4,5-c][1,5]naphthyridin-1-yl)ethyl]-3,5-di-(1,1-dimethylethyl)-4-hydroxybenzamide] | ± | + | + | + | − | − | + | +
153 to 154 | CCCCc1nc2c(N)nc3cccnc3c2n1CCNC(=O)C1CCC(=O)O1 (stereo not shown) [Example 97, N-[2-(4-Amino-2-butyl-1H-imidazo[4,5-c][1,5]naphthyridin-1-yl)ethyl]-5-oxotetrahydro-2-furancarboxamide] | − | − | + | + | − | − | + | +
135 to 138 | CCCCc1nc2c(N)nc3cccnc3c2n1CCNC(=O)C1CCC(=O)N1 (stereo not shown) [Example 213] |  |  |  |  |  |  |  | 

SMILES | melting point [°C] | IFN induction (IFN; Dose Concentration 0.1 μM) | IFN induction (IFN; Dose Concentration 1.0 μM) | IFN induction (IFN; Dose Concentration 10.0 μM) | IFN induction (IFN; Dose Concentration 100.0 μM) | TNF induction (TNF; Dose Concentration 0.1 μM) | TNF induction (TNF; Dose Concentration 1.0 μM) | TNF induction (TNF; Dose Concentration 10.0 μM) | TNF induction (TNF; Dose Concentration 100.0 μM)
CCCCOCCCn1c(CCCC)nc2cnc3cccnc3c21 [Example 78, 1-(3-Butoxypropyl)-2-butyl-1H-imidazo[4,5-c][1,5]naphthyridine] | 56.5 to 57.5 |  |  |  |  |  |  |  | 
CCCCOCCCn1c(CCCC)nc2c(N)nc3cccnc3c21 [Example 80, 1-(3-Butoxypropyl)-2-butyl-1H-imidazo[4,5-c][1,5]naphthyridin-4-amine] | 101 to 101.5 | − | + | + | − | − | − | + | −
